We go through three molecules from patent US20230092890A1, “1, 3, 4-Oxadiazole derivative compounds as histone deacetylase 6 inhibitor, and the pharmaceutical composition comprising the same” (Chong Kun Dang Pharmaceutical Corp., priority 2019, published 2023).

pIC50: −log10 of the molar value.

The target in one experiment is T1, HDAC6 human recombinant (Homo sapiens, UniProt Q9UBN7).
T1 construct: purchased Calbiochem 382180
T1 sequence (Q9UBN7 1-1215): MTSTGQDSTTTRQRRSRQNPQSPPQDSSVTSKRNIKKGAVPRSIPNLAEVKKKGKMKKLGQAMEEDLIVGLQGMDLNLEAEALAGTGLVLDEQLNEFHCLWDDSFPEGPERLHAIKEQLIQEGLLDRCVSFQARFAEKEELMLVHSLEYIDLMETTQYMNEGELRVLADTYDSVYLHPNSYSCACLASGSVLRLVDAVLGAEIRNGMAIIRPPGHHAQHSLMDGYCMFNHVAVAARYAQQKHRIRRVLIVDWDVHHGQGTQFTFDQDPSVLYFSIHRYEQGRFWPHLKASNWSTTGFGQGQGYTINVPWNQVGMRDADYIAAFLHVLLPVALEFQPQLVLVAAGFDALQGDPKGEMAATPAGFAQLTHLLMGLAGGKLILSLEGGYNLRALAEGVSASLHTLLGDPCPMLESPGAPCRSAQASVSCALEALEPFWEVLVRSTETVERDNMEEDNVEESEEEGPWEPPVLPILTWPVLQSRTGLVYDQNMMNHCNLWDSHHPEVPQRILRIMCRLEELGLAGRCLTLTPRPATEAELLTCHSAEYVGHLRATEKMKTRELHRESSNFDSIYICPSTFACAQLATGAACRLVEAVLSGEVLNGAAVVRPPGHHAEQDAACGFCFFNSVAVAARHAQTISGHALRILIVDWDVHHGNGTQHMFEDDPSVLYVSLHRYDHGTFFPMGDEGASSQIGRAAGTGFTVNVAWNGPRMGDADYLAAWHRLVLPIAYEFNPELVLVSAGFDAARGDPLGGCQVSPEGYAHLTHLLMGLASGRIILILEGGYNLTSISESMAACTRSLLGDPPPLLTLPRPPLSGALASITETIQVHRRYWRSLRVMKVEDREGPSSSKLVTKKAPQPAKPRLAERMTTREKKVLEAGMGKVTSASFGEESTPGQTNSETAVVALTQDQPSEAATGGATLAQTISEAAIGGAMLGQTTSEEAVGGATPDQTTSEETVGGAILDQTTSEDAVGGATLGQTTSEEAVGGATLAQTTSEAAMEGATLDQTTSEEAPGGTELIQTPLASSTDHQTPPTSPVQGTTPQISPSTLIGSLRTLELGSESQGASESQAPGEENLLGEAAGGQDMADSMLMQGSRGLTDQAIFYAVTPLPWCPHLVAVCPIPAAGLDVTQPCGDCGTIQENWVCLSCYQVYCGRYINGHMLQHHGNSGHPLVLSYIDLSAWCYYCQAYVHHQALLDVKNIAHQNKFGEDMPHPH
The experiment in a line: HDAC enzyme activity inhibition (in vitro), HDAC6 assay. It counts as biochemical. Particulars: samples at 0.1, 1, 10, 100 and 1000 nM; 37° C. 60 minutes; fluorescence Ex 390, Em 460; read-out: HDAC6 IC50. A digest of the protocol: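 HDAC6 human recombinant enzyme with fluorimetric substrate; […]. Reaction 60 min at 37° C, then developer 30 min at 37° C; fluorescence read at Ex 390/Em 460.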

The next experiment addresses T2, HDAC1 (Homo sapiens, UniProt Q13547).
T2 construct: purchased Enzolifesciences BML-AK511
The experiment in a line: HDAC enzyme activity inhibition (in vitro), HDAC1 Fluorimetric Drug Discovery Assay Kit. Particulars: samples at 100, 1000 and 10000 nM; 37° C. 60 minutes; fluorescence Ex 390, Em 460; read-out: HDAC1 IC50. It counts as biochemical. The essentials:
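Compounds at 100, 1000, 10000 nM (HDAC1) or 0.1, 1, 10, 100, 1000 nM (HDAC6); 37° C, 60 min; developer, 37° C, 30 min; fluorescence Ex 390/Em 460.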

T2 sequence (Q13547 whole entry): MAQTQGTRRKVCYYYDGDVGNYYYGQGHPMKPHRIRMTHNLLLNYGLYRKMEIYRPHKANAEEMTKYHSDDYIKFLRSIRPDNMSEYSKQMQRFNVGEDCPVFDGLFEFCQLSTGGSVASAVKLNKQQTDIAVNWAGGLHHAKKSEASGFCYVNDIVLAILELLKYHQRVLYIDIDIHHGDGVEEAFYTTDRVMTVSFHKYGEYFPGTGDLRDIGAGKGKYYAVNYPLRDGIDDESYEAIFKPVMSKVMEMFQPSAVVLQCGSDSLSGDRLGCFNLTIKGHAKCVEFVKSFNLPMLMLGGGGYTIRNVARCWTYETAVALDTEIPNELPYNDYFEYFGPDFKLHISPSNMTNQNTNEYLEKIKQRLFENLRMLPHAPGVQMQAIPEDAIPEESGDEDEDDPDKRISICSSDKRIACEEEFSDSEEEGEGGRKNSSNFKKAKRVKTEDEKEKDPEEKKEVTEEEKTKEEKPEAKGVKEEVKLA

For the molecule `O=c1oc2cc(-c3ccnc(N4CCN(C5COC5)CC4)c3)c(F)cc2n1Cc1ccc(-c2nnc(C(F)F)o2)cn1` [Compound 366, 3-((5-(5-(difluoromethyl)-1,3,4-oxadiazole-2-yl)pyridine-2-yl)methyl)-5-fluoro-6-(2-(4-(oxetan-3-yl)piperazine-1-yl)pyridine-4-yl)benzo[d]oxazole-2(3H)-one], the figures for the pIC50 at HDAC6 human recombinant and on HDAC1 were 7.28 and < 5.00, respectively.
On the same counts, the results for `O=c1oc2cc(-c3ccnc(N4CCN(C5CCC5)CC4)c3)c(F)cc2n1Cc1ccc(-c2nnc(C(F)F)o2)cn1` [Compound 367, 6-(2-(4-cyclobutylpiperazine-1-yl)pyridine-4-yl)-3-((5-(5-(difluoromethyl)-1,3,4-oxadiazole-2-yl)pyridine-2-yl)methyl)-5-fluorobenzo[d]oxazole-2(3H)-one] are 6.51 and < 5.00.
For the molecule `O=c1oc2cc(-c3ccnc(N4CCNCC4)c3)c(F)cc2n1Cc1ccc(-c2nnc(C(F)F)o2)cn1` [Compound 368, 3-((5-(5-(difluoromethyl)-1,3,4-oxadiazole-2-yl)pyridine-2-yl)methyl)-5-fluoro-6-(2-(piperazine-1-yl)pyridine-4-yl)benzo[d]oxazole-2(3H)-one], the results for the negative logarithm of the IC50 (pIC50) on HDAC6 human recombinant and at HDAC1 were 7.74 and < 5.00, respectively.
